Results as given in patent US11680060B2, “Bicycloheptane pyrrolidine orexin receptor agonists” (Merck Sharp & Dohme LLC, priority 2020, dated 2023).

Biological target: human OX2R (Homo sapiens (Human), UniProt O43614)
Assay: IPOne (IP-1) assay in CHO cells expressing human OX2R
Type: cell-based
Conditions: for Emax (%) / Emax: percentage of mean max effect of a reference compound at 1 uM (100% activity by comparison to Orexin A), human OX2R; for Emax: CHO, read-out: Emax (%); for IC50: CHO cells expressing human OX2R, IP-One detection, 2 hours incubation, EC50 = inflection point of four parameter logistic fit, read-out: hOX2R_IP_IC50
Summary of the method: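 CHO cells stably expressing human OX2R were stimulated with compound (10-point ½-log dilutions) for 2 h at 37 °C. IP-1 accumulation was read by HTRF (IP-One, 665/620 nm). EC50 from a four-parameter fit; % effect relative to 1 μM reference agonist control.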

Chain of human OX2R (O43614 whole entry): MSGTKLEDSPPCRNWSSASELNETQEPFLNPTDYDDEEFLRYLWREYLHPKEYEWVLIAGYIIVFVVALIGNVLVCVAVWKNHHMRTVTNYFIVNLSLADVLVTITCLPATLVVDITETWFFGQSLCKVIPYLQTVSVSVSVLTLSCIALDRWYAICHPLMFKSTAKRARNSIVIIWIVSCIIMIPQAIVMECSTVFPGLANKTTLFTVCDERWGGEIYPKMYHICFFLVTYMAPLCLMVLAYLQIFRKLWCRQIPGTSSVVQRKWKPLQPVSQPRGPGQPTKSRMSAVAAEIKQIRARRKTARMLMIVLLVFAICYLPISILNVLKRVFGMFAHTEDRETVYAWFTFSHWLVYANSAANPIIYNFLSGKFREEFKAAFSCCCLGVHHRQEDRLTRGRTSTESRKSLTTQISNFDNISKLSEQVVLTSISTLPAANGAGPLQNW

Emax (%) | Emax [%] | IC50 [nM] | SMILES
82.0 |  |  | COC(=O)N1[C@H](C)C[C@H](NS(=O)(=O)N(C)C)[C@@H]1COC1CCC2(c3cnccn3)CC2C1 (stereo partly drawn) [Example 13, methyl (2R,3S,5R)-3-((N,N-dimethylsulfamoyl)amino)-5-methyl-2-(((6-(pyrazin-2-yl)bicyclo[4.1.0]heptan-3-yl)oxy)methyl)pyrrolidine-1-carboxylate]
 | 104 |  | CC(C)OC(=O)N1CCC[C@H](NS(=O)(=O)C2CC2)[C@@H]1COC1CCC2(c3ncc(F)cn3)CC2C1 (stereo partly drawn) [Example 122, isopropyl (2R,3S)-3-(cyclopropanesulfonamido)-2-(((6-(5-fluoropyrimidin-2-yl)bicyclo[4.1.0]heptan-3-yl)oxy)methyl)piperidine-1-carboxylate]
 | 104 |  | CC(C)OC(=O)N1[C@H](C)C[C@H](NS(=O)(=O)CF)[C@@H]1COC1CCC2(c3ncc(Cl)cn3)CC2C1 (stereo partly drawn) [Example 107, isopropyl (2R,3S,5R)-2-(((6-(5-chloropyrimidin-2-yl)bicyclo[4.1.0]heptan-3-yl)oxy)methyl)-3-((fluoromethyl)sulfonamido)-5-methylpyrrolidine-1-carboxylate]
 | 101 |  | CC(C)OC(=O)N1[C@H](C)C[C@H](NS(C)(=O)=O)[C@@H]1COC1CCC2(c3ncc(Cl)cn3)CC2C1 (stereo partly drawn) [Example 154, isopropyl (2R,3S,5R)-2-(((6-(5-chloropyrimidin-2-yl)bicyclo[4.1.0]heptan-3-yl)oxy)methyl)-5-methyl-3-(methylsulfonamido)pyrrolidine-1-carboxylate]
 | 105 |  | CC(C)OC(=O)N1[C@H](C)C[C@H](NS(=O)(=O)C(F)F)[C@@H]1COC1CCC2(c3ncc(F)cn3)CC2C1 (stereo partly drawn) [Example 109, isopropyl (2R,3S,5R)-3-((difluoromethyl)sulfonamido)-2-(((6-(5-fluoropyrimidin-2-yl)bicyclo[4.1.0]heptan-3-yl)oxy)methyl)-5-methylpyrrolidine-1-carboxylate]
 | 102 |  | COC(=O)N1[C@H](C)C[C@H](NS(C)(=O)=O)[C@@H]1CO[C@H]1CC[C@@]2(c3ncc(Cl)cn3)C[C@H]2C1 [Example 142, methyl (2R,3S,5R)-2-((((1S,3S,6R)-6-(5-chloropyrimidin-2-yl)bicyclo[4.1.0]heptan-3-yl)oxy)methyl)-5-methyl-3-(methylsulfonamido)pyrrolidine-1-carboxylate]
 | 91.7 | 233 | CC(C)OC(=O)N1[C@H](C)C[C@H](NS(=O)(=O)CF)[C@@H]1COC1CCC2(c3ncc(Br)cn3)CC2C1 (single isomer, unassigned) [Example 105]
 | 96.9 | 195 | COC(=O)N1[C@H](C)C[C@H](NS(C)(=O)=O)[C@@H]1COC1CCC2(c3ncc(C#N)cn3)CC2C1 (mixture of isomers) [Example 188, methyl (2R,3S,5R)-2-(((6-(5-cyanopyrimidin-2-yl)bicyclo[4.1.0]heptan-3-yl)oxy)methyl)-5-methyl-3-(methylsulfonamido)pyrrolidine-1-carboxylate]
 | 101 |  | C[C@@H]1C[C@H](NS(C)(=O)=O)[C@H](CO[C@H]2CC[C@@]3(c4ncc(F)cn4)C[C@H]3C2)N1C(=O)OCC(C)(F)F [Example 64, 2,2-difluoropropyl (2R,3S,5R)-2-((((1S,3S,6R)-6-(5-fluoropyrimidin-2-yl)bicyclo[4.1.0]heptan-3-yl)oxy)methyl)-5-methyl-3-(methylsulfonamido)pyrrolidine-1-carboxylate]
99.8 |  | 238 | COC(=O)N1CC[C@H](NS(C)(=O)=O)[C@@H]1CO[C@H]1CC[C@@]2(c3ncccn3)C[C@H]2C1 (single isomer, unassigned) [Example 24]
 | 98.4 |  | CCS(=O)(=O)N[C@H]1C[C@@H](C)N(C(=O)OC)[C@H]1CO[C@@H]1CC[C@]2(c3ncc(F)cn3)C[C@@H]2C1 [Example 47, methyl (2R,3S,5R)-3-(ethylsulfonamido)-2-((((1R,3R,6S)-6-(5-fluoropyrimidin-2-yl)bicyclo[4.1.0]heptan-3-yl)oxy)methyl)-5-methylpyrrolidine-1-carboxylate]
 | 103 | 0.95 | CC(C)OC(=O)N1CCC[C@H](NS(C)(=O)=O)[C@@H]1CO[C@H]1CC[C@@]2(c3ncc(F)cn3)C[C@H]2C1 (single isomer, unassigned) [Example 125]
 | 101 | 4.3 | CC(C)OC(=O)N1[C@H](C)C[C@H](NS(=O)(=O)CF)[C@@H]1CO[C@H]1CC[C@@]2(c3ncc(Br)cn3)C[C@H]2C1 (single isomer, unassigned) [Example 103]
 | 101 |  | COC(=O)N1[C@H](C)C[C@H](NS(=O)(=O)N(C)C)[C@@H]1COC1CCC2(c3ncccn3)CC2C1 (stereo partly drawn) [Example 6, methyl (2R,3S,5R)-3-((N,N-dimethylsulfamoyl)amino)-5-methyl-2-(((6-(pyrimidin-2-yl)bicyclo[4.1.0]heptan-3-yl)oxy)methyl)pyrrolidine-1-carboxylate]
 | 103 |  | COC(=O)N1[C@H](C)C[C@H](NS(=O)(=O)CCl)[C@@H]1CO[C@H]1CC[C@@]2(c3ncc(F)cn3)C[C@H]2C1 [Example 37, methyl (2R,3S,5R)-3-((chloromethyl)sulfonamido)-2-((((1S,3S,6R)-6-(5-fluoropyrimidin-2-yl)bicyclo[4.1.0]heptan-3-yl)oxy)methyl)-5-methylpyrrolidine-1-carboxylate]
 | 100 | 0.78 | COC(=O)N1[C@H](C(F)F)C[C@H](NS(=O)(=O)C(F)F)[C@@H]1CO[C@H]1CC[C@@]2(c3ncc(F)cn3)C[C@H]2C1 (single isomer, unassigned) [Example 112]
 | 102 |  | COC(=O)N1[C@H](C(F)F)C[C@H](NS(=O)(=O)C2CC2)[C@@H]1COC1CCC2(c3ncc(F)cn3)CC2C1 (stereo partly drawn) [Example 116, methyl (2R,3S,5S)-3-(cyclopropanesulfonamido)-5-(difluoromethyl)-2-(((6-(5-fluoropyrimidin-2-yl)bicyclo[4.1.0]heptan-3-yl)oxy)methyl)pyrrolidine-1-carboxylate]
 | 103 |  | CC(F)COC(=O)N1[C@H](C)C[C@H](NS(C)(=O)=O)[C@@H]1CO[C@H]1CC[C@@]2(c3ncc(F)cn3)C[C@H]2C1 (stereo partly drawn) [Example 58, 2-fluoropropyl (2R,3S,5R)-2-((((1S,3S,6R)-6-(5-fluoropyrimidin-2-yl)bicyclo[4.1.0]heptan-3-yl)oxy)methyl)-5-methyl-3-(methylsulfonamido)pyrrolidine-1-carboxylate]
 | 102 |  | COC(=O)N1[C@H](C)C[C@H](NS(=O)(=O)CF)[C@@H]1COC1CCC2(c3ncc(Cl)cn3)CC2C1 (stereo partly drawn) [Example 94, methyl (2R,3S,5R)-2-(((6-(5-chloropyrimidin-2-yl)bicyclo[4.1.0]heptan-3-yl)oxy)methyl)-3-((fluoromethyl)sulfonamido)-5-methylpyrrolidine-1-carboxylate]
 | 57.9 |  | COC(=O)N1[C@H](C)C[C@H](NS(C)(=O)=O)[C@@H]1COC1CCC2(c3nc4c(F)ccc(F)c4s3)CC2C1 (stereo partly drawn) [Example 71, methyl (2R,3S,5R)-2-(((6-(4,7-difluorobenzo[d]thiazol-2-yl)bicyclo[4.1.0]heptan-3-yl)oxy)methyl)-5-methyl-3-(methylsulfonamido)pyrrolidine-1-carboxylate]
 | 99.5 |  | COC(=O)N1[C@H](C)C[C@H](NS(C)(=O)=O)[C@@H]1COC1CCC2(c3ncc(F)cn3)CC2C1 (stereo partly drawn) [Example 135, methyl (2R,3S,5R)-2-(((6-(5-fluoropyrimidin-2-yl)bicyclo[4.1.0]heptan-3-yl)oxy)methyl)-5-methyl-3-(methylsulfonamido)pyrrolidine-1-carboxylate]
 | 99.9 |  | COC(=O)N1[C@H](C)C[C@H](NS(=O)(=O)N(C)C)[C@@H]1COC1CCC2(c3cccc(F)c3)CC2C1 (mixture of isomers) [Example 3, methyl (2R,3S,5R)-3-((N,N-dimethylsulfamoyl)amino)-2-(((6-(3-fluorophenyl)bicyclo[4.1.0]heptan-3-yl)oxy)methyl)-5-methylpyrrolidine-1-carboxylate]
 | 108 |  | CC(C)OC(=O)N1CCC[C@H](NS(=O)(=O)C(F)F)[C@@H]1CO[C@H]1CC[C@@]2(c3ncc(F)cn3)C[C@H]2C1 [Example 121, isopropyl (2R,3S)-3-((difluoromethyl)sulfonamido)-2-((((1S,3S,6R)-6-(5-fluoropyrimidin-2-yl)bicyclo[4.1.0]heptan-3-yl)oxy)methyl)piperidine-1-carboxylate]
 | 98.7 |  | COC(=O)N1[C@H](C)C[C@H](NS(C)(=O)=O)[C@@H]1CO[C@@H]1CC[C@]2(c3ncc(Cl)cn3)C[C@@H]2C1 [Example 141, methyl (2R,3S,5R)-2-((((1R,3R,6S)-6-(5-chloropyrimidin-2-yl)bicyclo[4.1.0]heptan-3-yl)oxy)methyl)-5-methyl-3-(methylsulfonamido)pyrrolidine-1-carboxylate]
 | 101 |  | CCS(=O)(=O)N[C@H]1C[C@@H](C(F)F)N(C(=O)OC)[C@H]1COC1CCC2(c3ncc(F)cn3)CC2C1 (stereo partly drawn) [Example 117, methyl (2R,3S,5S)-5-(difluoromethyl)-3-(ethylsulfonamido)-2-(((6-(5-fluoropyrimidin-2-yl)bicyclo[4.1.0]heptan-3-yl)oxy)methyl)pyrrolidine-1-carboxylate]
 | 103 | 49.5 | COC(=O)N1[C@H](C)C[C@H](NS(C)(=O)=O)[C@@H]1CO[C@H]1CC[C@@]2(c3ncc(C#N)cn3)C[C@H]2C1 [Example 190, methyl (2R,3S,5R)-2-((((1S,3S,6R)-6-(5-cyanopyrimidin-2-yl)bicyclo[4.1.0]heptan-3-yl)oxy)methyl)-5-methyl-3-(methylsulfonamido)pyrrolidine-1-carboxylate]
 | 102 | 34.5 | CC(C)OC(=O)N1[C@H](C)C[C@H](NS(=O)(=O)CF)[C@@H]1CO[C@@H]1CC[C@]2(c3ncc(Br)cn3)C[C@@H]2C1 (single isomer, unassigned) [Example 104]
